For 55 compounds, glass transition temperature results are on record in the PolyMetriX glass transition set.

As for `*=Nc1ccc(C(C)(C)c2ccc(C(C)(C)c3ccc(/N=C4/OC(=O)c5ccc(Oc6ccc7c(c6)C(=O)OC7=*)cc54)cc3)cc2)cc1` (repeat unit), the glass transition temperature came to 249.00 °C.

`*C(=O)Nc1ccc(C(c2ccc(NC(=O)c3ccc4c(c3)C(=O)N(c3ccc(-c5ccc(N6C(=O)c7ccc(*)cc7C6=O)c(OC)c5)cc3OC)C4=O)cc2)(C(F)(F)F)C(F)(F)F)cc1` (repeat unit) showed a glass transition temperature of 250.00 °C.

`*C(=O)c1ccc2c(c1)C(=O)N(c1ccc(-c3cc(C(C)(C)C)c(Oc4ccc(N5C(=O)c6ccc(*)cc6C5=O)cc4)c(C(C)(C)C)c3)cc1)C2=O` (repeat unit): the glass transition temperature was 347.50 °C.

Compound `*C(=O)c1ccc2c(c1)C(=O)N(c1ccc(-c3cc(C(C)(C)C)c(Oc4ccc(N5C(=O)c6ccc(*)cc6C5=O)cc4C(F)(F)F)c(C(C)(C)C)c3)cc1)C2=O` (repeat unit) had a glass transition temperature of 362.00 °C.

With `*C(=O)c1ccc2c(c1)C(=O)N(c1ccc(C(C)(C)c3cccc(C(C)(C)c4ccc(N5C(=O)c6ccc(*)cc6C5=O)cc4)c3)cc1)C2=O` (repeat unit), the glass transition temperature was found to be 316.50 °C.

The compound `*C(=O)c1ccc2c(c1)C(=O)N(c1cccc(C(O)c3cccc(N4C(=O)c5ccc(*)cc5C4=O)c3)c1)C2=O` (repeat unit) registered a glass transition temperature of 292.00 °C.

Take `*C(=O)c1ccc2c(c1)C(=O)N(c1cccc(C(c3ccccc3)(c3cccc(N4C(=O)c5ccc(*)cc5C4=O)c3)C(F)(F)F)c1)C2=O` (repeat unit): the glass transition temperature was found to be 311.00 °C.

In turn, `*C(=O)c1ccc2c(c1)C(=O)N(c1cccc(Nc3nc(Nc4cccc(N5C(=O)c6ccc(*)cc6C5=O)c4)nc(N(c4ccccc4)c4ccccc4)n3)c1)C2=O` (repeat unit) showed a glass transition temperature of 290.00 °C.

On to `*C(=O)c1ccc2c(c1)C(=O)N(c1cccc(Nc3ncnc(Nc4cccc(N5C(=O)c6ccc(*)cc6C5=O)c4)n3)c1)C2=O` (repeat unit), for which the glass transition temperature is 290.00 °C.

`*C(=O)c1ccc2c(c1)C(=O)N(c1cccc(OCCOc3cccc(N4C(=O)c5ccc(*)cc5C4=O)c3)c1)C2=O` (repeat unit) gave a glass transition temperature of 191.00 °C.

For the compound `*CCCCCC(=O)Oc1ccc(C(C)(C)c2ccc(OC(=O)c3ccc4c(c3)C(=O)N(*)C4=O)cc2)cc1` (repeat unit), the glass transition temperature came out at 110.00 °C.

With `*CCCCOC(=O)Nc1ccc(-c2ccc(NC(=O)OCCCCn3c4ccccc4c4cc(/C=C(\C#N)C(=O)OCCCCCCOC(=O)/C(C#N)=C/c5ccc6c(c5)c5ccccc5n6*)ccc43)c(C)c2)cc1C` (repeat unit), the glass transition temperature worked out at 113.00 °C.

The compound `*CCN(CCOC(=O)Nc1ccc(-c2ccc(NC(=O)O*)c(OC)c2)cc1OC)c1ccc(/N=N/c2ccc([N+](=O)[O-])cc2)cc1` (repeat unit) registered a glass transition temperature of 140.00 °C.

`*Cc1ccc(C(C)(C)c2ccc(Cn3c(=O)c4cc5c(=O)n(*)c(=O)c5cc4c3=O)o2)o1` (repeat unit) came in with a glass transition temperature of 138.00 °C.

On to `*Nc1ccc(C(C)(C)c2ccc(NC(=O)c3cc(C(*)=O)cc(S(=O)(=O)c4ccccc4)c3)cc2)cc1` (repeat unit), for which the glass transition temperature came to 287.00 °C.

Turning to `*Nc1ccc(C(C)(C)c2cccc(C(C)(C)c3ccc(Nc4ccc(C(=O)c5ccc(C(=O)c6ccc(*)cc6)cc5)cc4)cc3)c2)cc1` (repeat unit), the glass transition temperature was 177.00 °C.

`*Oc1ccc(C(C#N)(c2ccccc2)c2ccc(OC(*)=O)cc2)cc1` (repeat unit) yielded a glass transition temperature of 138.00 °C.

Compound `*Oc1ccc(C(C)(C)c2ccc(C(C)(C)c3ccc(OC(*)=O)cc3)cc2)cc1` (repeat unit) came in with a glass transition temperature of 154.00 °C.

Compound `*Oc1ccc(C(C)(C)c2ccc(OC(*)=O)c(C)c2)cc1C` (repeat unit) came in with a glass transition temperature of 124.00 °C.

The compound `*Oc1ccc(C(C)(C)c2ccc(OC(=O)C3CCC(C(*)=O)CC3)cc2)cc1` (repeat unit) returned a glass transition temperature of 150.00 °C.

On to `*Oc1ccc(C(C)(C)c2ccc(OC(=O)CCCCC(*)=O)cc2)cc1` (repeat unit), for which the glass transition temperature is 54.00 °C.

`*Oc1ccc(C(C)(C)c2ccc(OC(=O)CCCCCCCCC(*)=O)cc2)cc1` (repeat unit) displayed a glass transition temperature of 14.2 °C.

Compound `*Oc1ccc(C(C)(C)c2ccc(OC(=O)CN(CC(*)=O)c3ccc(/N=N/c4ccc([N+](=O)[O-])cc4)cc3)cc2)cc1` (repeat unit) returned a glass transition temperature of 152.00 °C.

With `*Oc1ccc(C(C)(C)c2ccc(OC(=O)OCC3CCC(COC(*)=O)CC3)cc2)cc1` (repeat unit), the glass transition temperature stood at 90.40 °C.

The compound `*Oc1ccc(C(C)(C)c2ccc(OC(=O)OCCN(CCOC(*)=O)c3ccccc3)cc2)cc1` (repeat unit) yielded a glass transition temperature of 70.00 °C.

In turn, `*Oc1ccc(C(C)(C)c2ccc(OC(=O)c3ccc(CC(*)=O)cc3)cc2)cc1` (repeat unit) had a glass transition temperature of 85.00 °C.

Compound `*Oc1ccc(C(C)(CC)c2ccc(OC(=O)OC3C(C)(C)C(OC(*)=O)C3(C)C)cc2)cc1` (repeat unit) registered a glass transition temperature of 124.00 °C.

With `*Oc1ccc(C(C)(CCC#N)c2ccc(OC(*)=O)cc2)cc1` (repeat unit), the glass transition temperature is 150.00 °C.

In the case of `*Oc1ccc(C(C)(c2ccccc2)c2ccc(OC(=O)OC3C(C)(C)C(OC(*)=O)C3(C)C)cc2)cc1` (repeat unit), the glass transition temperature amounted to 149.00 °C.

Consider `*Oc1ccc(C(C)c2ccc(OC(*)=O)cc2)cc1` (repeat unit), for which the glass transition temperature amounted to 130.00 °C.

In turn, `*Oc1ccc(C(CC)(c2ccccc2)c2ccc(OC(=O)c3ccc(C(*)=O)cc3)cc2)cc1` (repeat unit) registered a glass transition temperature of 243.00 °C.

`*Oc1ccc(C(CC)c2ccc(OC(*)=O)cc2)cc1` (repeat unit) came in with a glass transition temperature of 128.00 °C.

Turning to `*Oc1ccc(C2(c3ccc(OC(*)=O)c(C)c3)CC3CCC2C3)cc1C` (repeat unit), the glass transition temperature turned out to be 161.00 °C.

Compound `*Oc1ccc(C2(c3ccc(OC(*)=O)c(C)c3)CCCCC2)cc1C` (repeat unit) had a glass transition temperature of 137.50 °C.

For `*Oc1ccc(C2(c3ccc(OC(*)=O)cc3)c3cc(N(C)C)ccc3-c3ccc([N+](=O)[O-])cc32)cc1` (repeat unit), the glass transition temperature is 278.00 °C.

Compound `*Oc1ccc(C2(c3ccc(OC(*)=O)cc3C)CC3CC2C2C4CCC(C4)C32)cc1C` (repeat unit) gave a glass transition temperature of 232.00 °C.

`*Oc1ccc(C2(c3ccc(OC(=O)CCC(*)=O)cc3)c3cc(N(C)C)ccc3-c3ccc([N+](=O)[O-])cc32)cc1` (repeat unit) displayed a glass transition temperature of 215.00 °C.

`*Oc1ccc(C2(c3ccc(OC(=O)CCCC(*)=O)cc3)c3cc(N(C)C)ccc3-c3ccc([N+](=O)[O-])cc32)cc1` (repeat unit) yielded a glass transition temperature of 181.00 °C.

`*Oc1ccc(C2(c3ccc(OC(=O)c4ccc(C(*)=O)cc4)cc3)CCC(C(C)(C)C)CC2)cc1` (repeat unit) yielded a glass transition temperature of 210.00 °C.

`*Oc1ccc(OC(=O)Oc2ccc(C(C)(C)c3ccc(OC(*)=O)cc3)cc2)cc1` (repeat unit) showed a glass transition temperature of 97.00 °C.

Regarding `*Oc1ccc(SC(=O)Oc2ccc(C(C)(C)c3ccc(OC(=O)Sc4ccc(*)cc4)cc3)cc2)cc1` (repeat unit), the glass transition temperature worked out at 145.00 °C.

`*c1ccc(-c2cc(C(C)(C)C)c(Oc3ccc(N4C(=O)c5ccc(-c6ccc7c(c6)C(=O)N(*)C7=O)cc5C4=O)cc3)c(C(C)(C)C)c2)cc1` (repeat unit) came in with a glass transition temperature of 381.50 °C.

Compound `*c1ccc(-c2cc(C(C)(C)C)c(Oc3ccc(N4C(=O)c5ccc(Oc6ccc7c(c6)C(=O)N(*)C7=O)cc5C4=O)cc3)c(C(C)(C)C)c2)cc1` (repeat unit) registered a glass transition temperature of 342.00 °C.

Regarding `*c1ccc(-c2ccc(N3C(=O)c4ccc(-c5cccc6c5C(=O)N(*)C6=O)cc4C3=O)c(C)c2)cc1C` (repeat unit), the glass transition temperature was 384.00 °C.

With `*c1ccc(-c2ccc(N3C(=O)c4ccc(Oc5ccc(Oc6ccc7c(c6)C(=O)N(*)C7=O)cc5)cc4C3=O)c(OC)c2)cc1OC` (repeat unit), the glass transition temperature was determined as 274.00 °C.

The compound `*c1ccc(C(C)(C)c2ccc(C(C)(C)c3ccc(N4C(=O)c5ccc(Oc6ccc7ccc(Oc8ccc9c(c8)C(=O)N(*)C9=O)cc7c6)cc5C4=O)cc3)cc2)cc1` (repeat unit) displayed a glass transition temperature of 246.00 °C.

For `*c1ccc(C2C3C(=O)N(c4ccc(N5C(=O)C6ON(C)C(*)C6C5=O)cc4)C(=O)C3ON2C)cc1` (repeat unit), the glass transition temperature is 67.00 °C.

Take `*c1ccc(N(c2ccc(C#N)cc2)c2ccc(N3C(=O)c4ccc(-c5ccc6c(c5)C(=O)N(*)C6=O)cc4C3=O)cc2)cc1` (repeat unit): the glass transition temperature came to 358.00 °C.

`*c1ccc(N(c2ccc(C#N)cc2)c2ccc(N3C(=O)c4ccc(Oc5ccc6c(c5)C(=O)N(*)C6=O)cc4C3=O)cc2)cc1` (repeat unit) had a glass transition temperature of 304.00 °C.

Compound `*c1ccc(NC(=O)Nc2ccc(NC(=O)Nc3ccc(-c4nc(C#N)c(C#N)nc4*)cc3)cc2)cc1` (repeat unit) registered a glass transition temperature of 248.70 °C.

On to `*c1ccc(Nc2ccc(C3(c4ccc(Nc5ccc(S(*)(=O)=O)cc5)c(C)c4)c4ccccc4-c4ccccc43)cc2C)cc1` (repeat unit), for which the glass transition temperature was found to be 269.00 °C.

The compound `*c1ccc(Nc2ccc(C3(c4ccc(Nc5ccc(S(*)(=O)=O)cc5)cc4)c4ccccc4-c4ccccc43)cc2)cc1` (repeat unit) displayed a glass transition temperature of 221.00 °C.

Regarding `*c1ccc2c(c1)C(=O)N(c1ccc(C(C)(C)c3ccc(C(C)(C)c4ccc(N5C(=O)c6ccc(C(*)(C(F)(F)F)C(F)(F)F)cc6C5=O)cc4)cc3)cc1)C2=O` (repeat unit), the glass transition temperature worked out at 235.40 °C.

`*c1ccc2c(c1)C(=O)N(c1ccc(C(C)(C)c3ccc(N4C(=O)c5ccc(C(*)(C(F)(F)F)C(F)(F)F)cc5C4=O)cc3)cc1)C2=O` (repeat unit) showed a glass transition temperature of 310.00 °C.

`*c1ccc2c(c1)C(=O)N(c1ccc(N(c3ccc(C#N)cc3)c3ccc(N4C(=O)c5ccc(C(*)(C(F)(F)F)C(F)(F)F)cc5C4=O)cc3)cc1)C2=O` (repeat unit) displayed a glass transition temperature of 321.00 °C.
